Measured values taken from patent publication US7294635B2 (Portola Pharmaceuticals, Inc., priority 2003, dated 2007).

tested on: ADP-induced human platelet aggregation; assay: Inhibition of ADP-mediated platelet aggregation in vitro using platelet-rich plasma (PRP assay); type: cell-based; details: 5 min; human platelet-rich plasma, 2 μM ADP, 96-well microtiter, OD 650 nm at 5 min; read-out: Activity in the PRP assay
Method: This Example Provides an Assay for the Inhibition of ADP-Mediated Platelet Aggregation In Vitro Using Platelet-Rich Plasma (PRP)
Platelet-rich plasma (PRP) is prepared by centrifugation at 160×g for 20 minutes at room temperature. PRP is collected, and the platelet concentration is determined using a Coulter counter or hemocytometer (platelet concentration should be 2-4×10^8 platelets per mL).
Inhibition of ADP-dependent aggregation is preferably determined in 96-well flat-bottom microtiter plates using a microtiter plate shaker and plate reader similar to the procedure described by Frantantoni et al., Am. J. Clin. Pathol. […] All steps are performed at room temperature. The total reaction volume of 0.2 mL/well includes: PRP (˜6×10^7 total platelets in the presence of plasma), serial dilutions of test compounds (buffer for control wells) in 0.6% DMSO. After about 5 minutes preincubation at room temperature, ADP is added to a final concentration of 2 μM which induces submaximal aggregation. Buffer is added instead of ADP to one set of control wells (ADP-control). The OD of the samples is then determined at 650 nm using a microtiter plate reader (Softmax, Molecular Devices, Menlo Park, Calif.) resulting in the 0 minute reading. The plates are then agitated for 5 min on a microtiter plate shaker and the 5 minute reading is obtained in the plate reader. Aggregation is calculated from the decrease of OD at 650 nm at t=5 minutes compared to t=0 minutes and is expressed as % of the decrease in the ADP control samples after correcting for changes in the unaggregated control samples.

`CNc1cc2ccn(-c3ccc(NC(=O)NS(=O)(=O)c4ccc(Cl)s4)cc3)c(=O)c2cc1F` [Example 10, 5-chloro-N-[({4-[7-fluoro-6-(methylamino)-1-oxoisoquinolin-2(1H)-yl]phenyl}amino)carbonyl]thiophene-2-sulfonamide] and `CNc1cc2ccn(-c3ccc(NC(=O)NS(=O)(=O)c4ccc(Br)s4)cc3)c(=O)c2cc1F` [Example 28, 5-bromo-N-[({4-[7-fluoro-6-(methylamino)-1-oxoisoquinolin-2(1H)-yl]phenyl}amino)carbonyl]thiophene-2-sulfonamide] cannot be ordered by IC50: under 10 µM for the first, under 10 µM for the second.

First: O=C(Nc1ccc(-n2ccc3cc(NC4CC4)c(F)cc3c2=O)cc1)NS(=O)(=O)c1ccc(Cl)s1 [Example 13, 5-chloro-N-[({4-[6-(cyclopropylamino)-7-fluoro-1-oxoisoquinolin-2(1H)-yl]phenyl}amino)carbonyl]thiophene-2-sulfonamide]
Second: O=CNc1cc2ccn(-c3ccc(NC(=O)NS(=O)(=O)c4ccc(Cl)s4)cc3)c(=O)c2cc1F [Example 14, 5-chloro-N-[({4-[7-fluoro-6-(formylamino)-1-oxoisoquinolin-2(1H)-yl]phenyl}amino)carbonyl]thiophene-2-sulfonamide]
The IC50 of the first is lower: 10 to 30 µM for the first, over 30 µM for the second. The first is the more potent here.

`O=C(Nc1ccc(-n2ccc3cc(NCCF)c(F)cc3c2=O)cc1)NS(=O)(=O)c1ccc(Cl)s1` [Example 20, 5-chloro-N-[({4-[7-fluoro-6-[(2-fluoroethyl)amino]-1-oxoisoquinolin-2(1H)-yl]phenyl}amino)carbonyl]thiophene-2-sulfonamide] and `C#CCNc1cc2ccn(-c3ccc(NC(=O)NS(=O)(=O)c4ccc(Cl)s4)cc3)c(=O)c2cc1F` [Example 22, 5-chloro-N-[({4-[7-fluoro-1-oxo-6-(prop-2-ynylamino)isoquinolin-2(1H)-yl]phenyl}amino)carbonyl]thiophene-2-sulfonamide] cannot be ordered by IC50: under 10 µM for the first, under 10 µM for the second.

Compared with `O=C(Nc1ccc(-n2ccc3cc(NCC(F)(F)F)c(F)cc3c2=O)cc1)NS(=O)(=O)c1ccc(Cl)s1` [Example 21, 5-chloro-N-[({4-[7-fluoro-1-oxo-6-[(2,2,2-trifluoroethyl)amino]isoquinolin-2(1H)-yl]phenyl}amino)carbonyl]thiophene-2-sulfonamide], `CN(C)c1cc2ccn(-c3ccc(NC(=O)NS(=O)(=O)c4ccc(Cl)s4)cc3)c(=O)c2cc1F` [Example 26, 5-chloro-N-[({4-[6-(dimethylamino)-7-fluoro-1-oxoisoquinolin-2(1H)-yl]phenyl}amino)carbonyl]thiophene-2-sulfonamide] is higher in IC50: 10 to 30 µM for the first, over 30 µM for the second.

`O=C(Nc1ccc(-n2ccc3cc(NCc4ccc(Cl)cc4)c(F)cc3c2=O)cc1)NS(=O)(=O)c1ccc(Cl)s1` [Example 23, 5-chloro-N-[({4-[6-[(4-chlorobenzyl)amino]-7-fluoro-1-oxoisoquinolin-2(1H)-yl]phenyl}amino)carbonyl]thiophene-2-sulfonamide] and `CNc1cc2ccn(-c3ccc(NC(=O)NS(=O)(=O)c4ccc(C)s4)cc3)c(=O)c2cc1F` [Example 29] cannot be ordered by IC50: under 10 µM for the first, under 10 µM for the second.

`CNc1cc2ccn(-c3ccc(NC(=O)NS(=O)(=O)c4cccs4)cc3)c(=O)c2cc1F` [Example 27, N-[({4-[7-fluoro-6-(methylamino)-1-oxoisoquinolin-2(1H)-yl]phenyl}amino)carbonyl]thiophene-2-sulfonamide] and `CNc1cc2ccn(-c3ccc(NC(=O)NS(=O)(=O)c4cc(Cl)cs4)cc3)c(=O)c2cc1F` [Example 37] cannot be ordered by IC50: under 10 µM for the first, under 10 µM for the second.

First: CCc1ccc(S(=O)(=O)NC(=O)Nc2ccc(-n3ccc4cc(NC)c(F)cc4c3=O)cc2)s1 [Example 30]
Second: CCCc1ccc(S(=O)(=O)NC(=O)Nc2ccc(-n3ccc4cc(NC)c(F)cc4c3=O)cc2)s1 [Example 31]
The IC50 of the first is lower: under 10 µM for the first, 10 to 30 µM for the second. The first is the more potent here.

Compared with `CNc1cc2ccn(-c3ccc(NC(=O)NS(=O)(=O)c4ccc(C(F)F)s4)cc3)c(=O)c2cc1F` [Example 32], `CNc1cc2ccn(-c3ccc(NC(=O)NS(=O)(=O)c4cc(C(F)F)cs4)cc3)c(=O)c2cc1F` [Example 39] is higher in IC50: under 10 µM for the first, 10 to 30 µM for the second. The first is the more potent here.

First: CNc1cc2ccn(-c3ccc(NC(=O)NS(=O)(=O)c4ccc(C#N)s4)cc3)c(=O)c2cc1F [Example 33]
Second: C#Cc1ccc(S(=O)(=O)NC(=O)Nc2ccc(-n3ccc4cc(NC)c(F)cc4c3=O)cc2)s1 [Example 35]
The IC50 of the first is higher: 10 to 30 µM for the first, under 10 µM for the second. The second is the more potent here.

`CNc1cc2ccn(-c3ccc(NC(=O)NS(=O)(=O)c4ccc(OC)s4)cc3)c(=O)c2cc1F` [Example 34] and `CNc1cc2ccn(-c3ccc(NC(=O)NS(=O)(=O)c4cc(C)cs4)cc3)c(=O)c2cc1F` [Example 38] cannot be ordered by IC50: under 10 µM for the first, under 10 µM for the second.

First: CNc1cc2ccn(-c3ccc(NC(=O)NS(=O)(=O)c4sccc4Cl)cc3)c(=O)c2cc1F [Example 40]
Second: CNc1cc2ccn(-c3ccc(NC(=O)NS(=O)(=O)c4sccc4C)cc3)c(=O)c2cc1F [Example 41]
The IC50 of the first is higher: over 30 µM for the first, 10 to 30 µM for the second. The second is the more potent here.

`CNc1cc2ccn(-c3ccc(NC(=O)NS(=O)(=O)c4ccccc4)cc3)c(=O)c2cc1F` [Example 42] and `CNc1cc2ccn(-c3ccc(NC(=O)NS(=O)(=O)c4ccc(Cl)s4)cn3)c(=O)c2cc1F` [Example 54, 5-chloro-N-[({6-[7-fluoro-6-(methylamino)-1-oxoisoquinolin-2(1H)-yl]pyridin-3-yl}amino)carbonyl]thiophene-2-sulfonamide] cannot be ordered by IC50: under 10 µM for the first, under 10 µM for the second.

`CNc1cc2ccn(-c3ccc(NC(=O)NS(=O)(=O)c4ccc(Cl)s4)cc3F)c(=O)c2cc1F` [Example 49, 5-chloro-N-[({3-fluoro-4-[7-fluoro-6-(methylamino)-1-oxoisoquinolin-2(1H)-yl]phenyl}amino)carbonyl]thiophene-2-sulfonamide] and `CNc1cc2ccn(-c3ccc(NC(=O)NS(=O)(=O)c4ccc(Cl)s4)cc3Cl)c(=O)c2cc1F` [Example 50, 5-chloro-N-[({3-chloro-4-[7-fluoro-6-(methylamino)-1-oxoisoquinolin-2(1H)-yl]phenyl}amino)carbonyl]thiophene-2-sulfonamide] cannot be ordered by IC50: under 10 µM for the first, under 10 µM for the second.

`CNc1cc2ccn(-c3ccc(NC(=O)NS(=O)(=O)c4ccc(Cl)s4)cc3Br)c(=O)c2cc1F` [Example 51, N-[({3-bromo-4-[7-fluoro-6-(methylamino)-1-oxoisoquinolin-2(1H)-yl]phenyl}amino)carbonyl]-5-chlorothiophene-2-sulfonamide] and `CNc1cc2ccn(-c3ccc(NC(=O)NS(=O)(=O)c4ccc(Cl)s4)cc3C)c(=O)c2cc1F` [Example 52, 5-chloro-N-[({4-[7-fluoro-6-(methylamino)-1-oxoisoquinolin-2(1H)-yl]-3-methylphenyl}amino)carbonyl]thiophene-2-sulfonamide] cannot be ordered by IC50: under 10 µM for the first, under 10 µM for the second.

`CNc1cc2ccn(-c3ccc(NC(=O)NS(=O)(=O)c4ccc(Cl)s4)c(C)c3)c(=O)c2cc1F` [Example 53, 5-chloro-N-[({4-[7-fluoro-6-(methylamino)-1-oxoisoquinolin-2(1H)-yl]-2-methylphenyl}amino)carbonyl]thiophene-2-sulfonamide] and `CNc1cc2ccn(-c3ccc(NC(=O)NS(=O)(=O)c4ccc(Cl)s4)c(F)c3)c(=O)c2cc1F` [Example 58, 5-chloro-N-[({2-fluoro-4-[7-fluoro-6-(methylamino)-1-oxoisoquinolin-2(1H)-yl]phenyl}amino)carbonyl]thiophene-2-sulfonamide] cannot be ordered by IC50: under 10 µM for the first, under 10 µM for the second.

`CNc1cc2ccn(-c3ccc(NC(=O)NS(=O)(=O)c4ccc(Cl)s4)c(C)n3)c(=O)c2cc1F` [Example 55, 5-chloro-N-[({6-[7-fluoro-6-(methylamino)-1-oxoisoquinolin-2(1H)-yl]-2-methylpyridin-3-yl}amino)carbonyl]thiophene-2-sulfonamide] and `CNc1cc2ccn(-c3cc(C)c(NC(=O)NS(=O)(=O)c4ccc(Cl)s4)cn3)c(=O)c2cc1F` [Example 56, 5-chloro-N-[({6-[7-fluoro-6-(methylamino)-1-oxoisoquinolin-2(1H)-yl]-4-methylpyridin-3-yl}amino)carbonyl]thiophene-2-sulfonamide] cannot be ordered by IC50: under 10 µM for the first, under 10 µM for the second.

First: CNc1cc2ccn(-c3ncc(NC(=O)NS(=O)(=O)c4ccc(Cl)s4)cc3C)c(=O)c2cc1F [Example 57, 5-chloro-N-[({6-[7-fluoro-6-(methylamino)-1-oxoisoquinolin-2(1H)-yl]-5-methylpyridin-3-yl}amino)carbonyl]thiophene-2-sulfonamide]
Second: CNc1cc2ccn(-c3ccc(NC(=O)NS(=O)(=O)c4ccc(Cl)s4)nc3)c(=O)c2cc1F [Example 59, 5-chloro-N-[({5-[7-fluoro-6-(methylamino)-1-oxoisoquinolin-2(1H)-yl]pyridin-2-yl}amino)carbonyl]thiophene-2-sulfonamide]
The IC50 of the first is higher: over 30 µM for the first, under 10 µM for the second. The second is the more potent here.

same assay, conditions: Homo sapiens, Platelet, 5 min, read-out: Activity in the PRP assay

With `CCNc1cc2ccn(-c3ccc(NC(=O)NS(=O)(=O)c4ccc(Cl)s4)cc3)c(=O)c2cc1F` [Example 19, 5-chloro-N-[({4-[6-(ethylamino)-7-fluoro-1-oxoisoquinolin-2(1H)-yl]phenyl}amino)carbonyl]thiophene-2-sulfonamide] the IC50 was under 10 µM.
